The numbers were not newly measured in patent US10548906B2, “Methods of promoting hepatic regeneration” (Intercept Pharmaceuticals, Inc., priority 2015, dated 2020), which cites them from elsewhere.

In data set [1] the test system is Ntcp. The note with it: mice with intrahepatic (but not extrahepatic) cholestasis; cited from earlier work.
Data set [2] concerns mice. The note with it: diet enriched with cholic acid, FXR dependent; cited from earlier work.
For data set [3], the system named is cholestatic animals. The note with it: cited from earlier work.

With `CC(C)c1onc(-c2c(Cl)cccc2Cl)c1COc1ccc(/C=C/c2cccc(C(=O)O)c2)c(Cl)c1` [GW4064], in data set [1], the Ntcp regulation result was “loss of Ntcp suppression”.

In the case of `C[C@H](CCC(=O)O)[C@H]1CC[C@H]2[C@@H]3[C@H](O)C[C@@H]4C[C@H](O)CC[C@]4(C)[C@H]3C[C@H](O)[C@]12C` [cholic acid], the liver growth result in data set [2] is “induced spontaneous liver growth”. For the compound `Cc1c(-c2cnccn2)ssc1=S` [oltipraz], the biliary injury result in data set [3] was “increase in biliary injury”. Consider `C[C@H](CCC(=O)O)[C@H]1CC[C@H]2[C@@H]3[C@@H](O)C[C@@H]4C[C@H](O)CC[C@]4(C)[C@H]3CC[C@]12C` [ursodeoxycholic acid], for which, in data set [3], the biliary injury result is listed as “increase in biliary injury”.
